The results in this text go back to patent US9157904B2, “Wnt antagonists and methods of treatment and screening” (OncoMed Pharmaceuticals, Inc., priority 2010, dated 2015).

One test relates to PN21 pancreatic tumors. As to the kind of experiment: In vivo limiting dilution assay of treated PN21 tumors. More on the design: species or system NOD/SCID mice. Conditions: day 72. An excerpt:
As described above in Example 3, a limiting dilution assays was used to assess the effect of treatment with FZD8-Fc alone or in combination with gemcitabine on solid tumor cancer stem cells in the PN21 pancreatic tumor model.
Control and treated tumors from the PN21 xenograft study described above were harvested at the end of the study. The tumors were processed and dissociated into single cells. […] The human cells in the suspension were harvested, counted, and stained for cell surface markers and appropriate cell doses (30, 90, and 270 cells) in FACS buffer were mixed in a 1:1 mixture with Matrigel and injected subcutaneously in NOD/SCID mice (10 mice per cell dose per treatment group). […]
At the desired time point, the percentage of mice with detectable tumors was determined in all groups injected with treated tumor cells and compared to the percentage of mice with detectable tumors in control treated cells. For example, the number of mice injected with 125 control antibody-treated tumor cells that have detectable tumors is determined and compared to the number of mice injected with 125 FZD8-Fc treated tumor cells that have detectable tumors.
On day 72 after injection of the cells, tumor take rates in the various groups were determined and the cancer stem cell frequency was calculated using L-Calc™ software (StemCell Technologies Inc.; www.stemcell.com).

The subject of a further test is PN21 pancreas tumor. As to the kind of experiment: PN21 pancreas tumor xenograft, tumor growth. The note with it: FZD8-Fc 15 mg/kg i.p. once weekly. The format is in vivo, NOD/SCID mice. How it is done:
The anti-tumor activity of FZD8-Fc (54F03) was evaluated in the PN21 pancreas tumor xenograft model. Dissociated OMP-PN21 cells (50,000 per animal) were injected subcutaneously into 6-8 week old male NOD/SCID mice. Tumor growth was monitored weekly and tumor measurements were initiated once tumors were palpable. On day 36, mice with average tumor volumes of 144 mm^3 were randomized into 4 groups of 9 animals each. Animals were injected with control antibody, FZD8-Fc (15 mg/kg), gemcitabine (2 mg/kg) or a combination of FZD8-Fc and gemcitabine. Administration of the FZD8-Fc and gemcitabine was performed via injection into the intraperitoneal cavity, once weekly. Tumors were measured twice a week and tumor volume was determined as described herein.

Turning to “54F03: Fri domain of human FZD8 fused to human IgG1 Fc with GRA linker; SEQ ID NO:1”, the “reduction of cancer stem cell frequency as compared to control antibody” value in the test on PN21 pancreatic tumors is given as “four-fold”. The “reduction in tumor growth as compared to control” value in the test with PN21 pancreas tumor is 66%.
